≈ marks a conversion by molar mass, not a printed value.
Experiments:
[1] = tested on: Candida albicans; assay: Antifungal activity against Candida albicans ATCC 66027 by microbroth dilution method; format: functional
[2] = tested on: Candida; assay: Antifungal activity against Candida sp. clinical isolate 12810 derived from blood by microbroth dilution method; format: functional
[3] = tested on: Candida; assay: Antifungal activity against Candida sp. clinical isolate 13184 derived from high vaginal swabs by microbroth dilution method; format: functional
[4] = tested on: Candida; assay: Antifungal activity against Candida sp. clinical isolate 300 derived from urine by microbroth dilution method; format: functional; settings: clinical isolate 300, Urine
[5] = tested on: Candida; assay: Antifungal activity against Candida sp. clinical isolate 12485 derived from urine by microbroth dilution method; format: functional; settings: clinical isolate 12485, Urine
[6] = tested on: Candida parapsilosis; assay: Antifungal activity against Candida parapsilosis ATCC 22019 by microbroth dilution method; format: functional; settings: Lodderomyces parapsilosis
[7] = tested on: Candida; assay: Antifungal activity against Candida sp. clinical isolate 12341 derived from urine by microbroth dilution method; format: functional; settings: clinical isolate 12341, Urine
[8] = tested on: Candida; assay: Antifungal activity against Candida sp. clinical isolate 178 derived from high vaginal swabs by microbroth dilution method; format: functional
[9] = tested on: Candida; assay: Antifungal activity against Candida sp. clinical isolate 11972 derived from high vaginal swabs by microbroth dilution method; format: functional
[10] = Cytotoxicity against human MCF10A cells after 48 hrs by WST1 assay; format: cell-based; settings: MCF-10A
[11] = tested on: Candida tropicalis; assay: Antifungal activity against Candida tropicalis ATCC 66029 by microbroth dilution method; format: functional
[12] = Cytotoxicity against human HT1080 cells after 48 hrs by MTT assay; format: cell-based; settings: HT-1080, 48 h
[13] = tested on: HepG2; assay: Cytotoxicity against human HepG2 cells after 48 hrs by MTT assay; format: cell-based; settings: HepG2, 48 h
[14] = tested on: A549; assay: Cytotoxicity against human A549 cells after 48 hrs by MTT assay; format: cell-based; settings: A549, 48 h

SMILES | MIC [1] [mg/L] | MIC [2] [mg/L] | MIC [3] [mg/L] | MIC [4] [mg/L] | MIC [5] [mg/L] | MIC [6] [mg/L] | MIC [7] [mg/L] | MIC [8] [mg/L] | MIC [9] [mg/L] | IC50 [10] [µM] | MIC [11] [mg/L] | IC50 [12] [mg/L] | IC50 [13] [mg/L] | IC50 [14] [mg/L]
CCc1cccc(NC(=S)NNC(=O)c2ccncc2)c1 | > 50 | > 50 | > 50 | > 50 | > 50 | > 50 | > 50 | > 50 | > 50 | > 300 | > 50 | – | – | –
O=C(NNC(=S)Nc1ccc([N+](=O)[O-])cc1)c1ccncc1 | > 50 | > 50 | > 50 | > 50 | > 50 | > 50 | > 50 | > 50 | > 50 | > 300 | > 50 | – | – | –
O=C(O)c1cn(C2CC2)c2cc(N3CCNCC3)c(F)cc2c1=O [CIPROFLOXACIN] | – | – | – | – | – | – | – | – | – | > 300 | – | – | – | –
Cc1cccc(C)c1NC(=S)NNC(=O)c1ccncc1 | 0.78 (≈ 2.6 µM) | 1.6 (≈ 5.33 µM) | 6.25 (≈ 20.8 µM) | 0.78 (≈ 2.6 µM) | 6.25 (≈ 20.8 µM) | 0.78 (≈ 2.6 µM) | 6.25 (≈ 20.8 µM) | 6.25 (≈ 20.8 µM) | 12.5 (≈ 41.6 µM) | > 300 | 0.78 (≈ 2.6 µM) | – | – | –
COc1ccccc1N=C(S)NNC(=O)c1ccncc1 | > 50 | > 50 | > 50 | > 50 | > 50 | > 50 | > 50 | > 50 | > 50 | > 300 | > 50 | – | – | –
Cc1cccc(NC(=S)NNC(=O)c2ccncc2)c1 | > 50 | > 50 | > 50 | > 50 | > 50 | > 50 | > 50 | > 50 | > 50 | > 300 | > 50 | – | – | –
O=C(NNC(=S)Nc1ccc(I)cc1)c1ccncc1 | 0.39 (≈ 0.979 µM) | 0.39 (≈ 0.979 µM) | 1.6 (≈ 4.02 µM) | 1.6 (≈ 4.02 µM) | 0.78 (≈ 1.96 µM) | 0.19 (≈ 0.477 µM) | 0.19 (≈ 0.477 µM) | 0.09 (≈ 0.226 µM) | 0.19 (≈ 0.477 µM) | > 300 | 0.19 (≈ 0.477 µM) | – | – | –
O=C(NNC(=S)NC1CCCCC1)c1ccncc1 | > 50 | > 50 | > 50 | > 50 | > 50 | > 50 | > 50 | > 50 | > 50 | > 300 | > 50 | – | – | –
CCC(C)n1ncn(-c2ccc(N3CCN(c4ccc(OCC5COC(Cn6cncn6)(c6ccc(Cl)cc6Cl)O5)cc4)CC3)cc2)c1=O (configuration not stated) [ITRACONAZOLE] | 1.56 (≈ 2.21 µM) | 0.25 (≈ 0.354 µM) | 0.39 (≈ 0.553 µM) | 0.09 (≈ 0.128 µM) | 0.04 (≈ 0.0567 µM) | 0.04 (≈ 0.0567 µM) | 0.09 (≈ 0.128 µM) | 0.19 (≈ 0.269 µM) | 0.02 (≈ 0.0283 µM) | > 300 | 0.19 (≈ 0.269 µM) | 202 (≈ 286 µM) | 142 (≈ 201 µM) | 182 (≈ 258 µM)
Cc1ccccc1N=C(S)NNC(=O)c1ccncc1 | > 50 | > 50 | > 50 | > 50 | > 50 | > 50 | > 50 | > 50 | > 50 | > 300 | > 50 | – | – | –
O=C(NNC(=S)Nc1cccc(Cl)c1)c1ccncc1 | 0.19 (≈ 0.619 µM) | 0.09 (≈ 0.293 µM) | 6.25 (≈ 20.4 µM) | 0.78 (≈ 2.54 µM) | 6.25 (≈ 20.4 µM) | 0.78 (≈ 2.54 µM) | 0.78 (≈ 2.54 µM) | 6.25 (≈ 20.4 µM) | 0.39 (≈ 1.27 µM) | > 300 | 1.6 (≈ 5.22 µM) | – | – | –
CCOc1ccc(NC(=S)NNC(=O)c2ccncc2)cc1 | > 50 | > 50 | > 50 | > 50 | > 50 | > 50 | > 50 | > 50 | > 50 | > 300 | > 50 | – | – | –
Cc1ccc(NC(=S)NNC(=O)c2ccncc2)cc1 | > 50 | > 50 | > 50 | > 50 | > 50 | > 50 | > 50 | > 50 | > 50 | 229 | > 50 | – | – | –
O=C(NNC(=S)Nc1ccccc1[N+](=O)[O-])c1ccncc1 | 1.6 (≈ 5.04 µM) | 0.39 (≈ 1.23 µM) | 0.78 (≈ 2.46 µM) | 1.6 (≈ 5.04 µM) | 0.39 (≈ 1.23 µM) | 6.25 (≈ 19.7 µM) | 6.25 (≈ 19.7 µM) | 0.39 (≈ 1.23 µM) | 6.25 (≈ 19.7 µM) | > 300 | 0.19 (≈ 0.599 µM) | 833 (≈ 2630 µM) | 410 (≈ 1290 µM) | 813 (≈ 2560 µM)
O=C(NNC(=S)Nc1ccccc1)c1ccncc1 | 0.19 (≈ 0.698 µM) | 0.78 (≈ 2.86 µM) | 12.5 (≈ 45.9 µM) | 0.19 (≈ 0.698 µM) | 1.6 (≈ 5.88 µM) | 0.39 (≈ 1.43 µM) | 1.6 (≈ 5.88 µM) | 6.25 (≈ 22.9 µM) | 6.25 (≈ 22.9 µM) | > 300 | 1.6 (≈ 5.88 µM) | 684 (≈ 2510 µM) | 716 (≈ 2630 µM) | 2040 (≈ 7500 µM)
O=C(NNC(=S)Nc1ccc(S(=O)(=O)Nc2ncccn2)cc1)c1ccncc1 | > 50 | > 50 | > 50 | > 50 | > 50 | > 50 | > 50 | > 50 | > 50 | > 300 | > 50 | – | – | –
CC(=O)Nc1ccc(NC(=S)NNC(=O)c2ccncc2)cc1 | 0.39 (≈ 1.18 µM) | 1.6 (≈ 4.86 µM) | 1.6 (≈ 4.86 µM) | 1.6 (≈ 4.86 µM) | 1.6 (≈ 4.86 µM) | 0.19 (≈ 0.577 µM) | 1.6 (≈ 4.86 µM) | 0.19 (≈ 0.577 µM) | 0.78 (≈ 2.37 µM) | > 300 | 0.19 (≈ 0.577 µM) | – | – | –
COc1cccc(NC(=S)NNC(=O)c2ccncc2)c1 | > 50 | > 50 | > 50 | > 50 | > 50 | > 50 | > 50 | > 50 | > 50 | > 300 | > 50 | – | – | –
COc1ccc(NC(=S)NNC(=O)c2ccncc2)cc1 | > 50 | > 50 | > 50 | > 50 | > 50 | > 50 | > 50 | > 50 | > 50 | 47.5 | > 50 | – | – | –
O=C(NNC(=S)Nc1ccc(Cl)cc1)c1ccncc1 | 0.09 (≈ 0.293 µM) | 0.09 (≈ 0.293 µM) | 0.78 (≈ 2.54 µM) | 0.39 (≈ 1.27 µM) | 0.39 (≈ 1.27 µM) | 0.19 (≈ 0.619 µM) | 0.19 (≈ 0.619 µM) | 0.19 (≈ 0.619 µM) | 0.19 (≈ 0.619 µM) | > 300 | 0.19 (≈ 0.619 µM) | 540 (≈ 1760 µM) | 1200 (≈ 3910 µM) | 410 (≈ 1340 µM)
